In patent publication US8734673B2, “Boron selective ionic liquids and polymeric ionic liquids, methods of making and methods of use thereof” (The University of Toledo, priority 2008, dated 2014):
Read-outs that look alike come from different tables or passages of the source.

Assays:
[1] = Miscibility/solubility in heptane and water
[2] = Solvation interaction parameters by inverse gas-liquid chromatography (Abraham model); format: physicochemical
Method: The preparation of the capillary columns for inverse gas-liquid chromatographic analysis was performed using a previously described procedure. All capillary columns had efficiencies between 2100 to 2500 plates/meter. Characterization of the capillary columns and probe molecule descriptions are listed in supplemental information. Multiple linear regression analysis (MLRA) and statistical calculations were performed using the program Analyse-it (Microsoft, USA).
Solvation Characteristics. We have previously reported that the Abraham solvation model, a linear free energy approach that utilizes inverse gas-liquid chromatography to describe the solvation properties of a liquid, can be used to characterize room temperature ionic liquids. Described by equation 1, the model provides the so-called “interaction parameters” (r, s, a, b, l) by using multiple linear regression analysis to fit the retention factor (k, determined chromatographically) to the solute descriptors (R2, π2^Hα2H, β2^H, log L^16) for a wide variety of probe solute molecules. […]
Previously we characterized a large number of room temperature ionic liquids in terms of multiple solvation interactions using the solvation parameter model, shown in equation log k=c+rR2+sπ2^H+aα2^H+bβ2^H+l log L^16 [3] This approach utilizes inverse gas-liquid chromatography and allows the use of a large number of probe molecules to deconvolute solute retention in terms of the type and magnitude of individual solvation interactions. The solute descriptors (R2, π2^H, α2^H, .β2^H, log L^16) from Equation 3 are obtained from the literature for many probe molecules containing a variety of functional groups. The retention factor is determined chromatographically. The solute descriptors and retention factors are subjected to multiple linear regression analysis to obtain the interaction parameter coefficients (r, s, a, b, l), which ultimately characterize the stationary phase: r is the ability of the diionic liquid containing-stationary phase to interact with .π0 and n electrons of the solute, s is a measure of the dipolarity/polarizability of the diionic liquid containing-stationary phase, a defines the diionic liquid containing-stationary phase hydrogen bond basicity, b is a measure of the hydrogen bond acidity, and l refers to the ability of the diionic liquid containing-stationary phase to separate adjacent members of a homologous series.
Test solutes used to determine interaction parameters and solvation thermodynamics were dissolved in dichloromethane. […] Split injection and flame ionization detection were utilized with injection and detection temperatures of 250° C. Helium was used as the carrier gas with a column inlet pressure of 3.1 psi and flow rate of 1.0 mL/min. Methane was used to determine the dead volume of the column. Multiple linear regression analysis and statistical calculations were performed using the program Analyze-it (Microsoft).

[3] = values taken from reference 31, cited from earlier work
[4] = Surface tension, DuNuoy tensiometer; format: physicochemical; conditions: room temperature (23° C.)
[5] = Density by weighing 2.0 mL of ionic liquid; format: physicochemical; conditions: 23° C.; Tables 1 and 2
Method: The densities of the ionic liquids […] were determined at 23° C. by placing 2.0 mL of the ionic liquid in a 2.0 mL volumetric tube and weighing by difference. The melting points of the ionic liquids were determined using a Perkin Elmer Pyris 1 Differential Scanning Calorimeter (Boston, Mass.). Typical methods involved using a 10° C./min temperature ramp to determine and identify the first and second order thermal transitions. […] For solid compounds, the melting points were verified using a capillary melting point apparatus. Refractive index measurements were conducted at 23° C. using a Bausch & Lomb Abbe-3L refractometer.

[6] = Solubility assay of N-methyl-D-glucamine in solvents; format: physicochemical
From the text: The mechanism for the transformation of N-methyl-D-glucamine into a quaternary ammonium compound is a double nucleophilic substitution with an alkyl halide (FIG. 57). However, the first problem the inventors herein encountered with this approach was the lack of an appropriate solvent.

In the case of “1,3-di(2,3-dimethylimidaolium)propane di-bromide [C3(m2im)2-Br]”, the “Miscibility with Heptane” value [1] was “Immiscible” and the “Miscibility with Water” value [1] was “Miscible”.
With “1,3-di(2,3-dimethylimidazolium)propane di-hexafluorophosphate [C3(m2im)2-PF6]” the “Miscibility with Heptane” value [1] was “Immiscible” and the “Miscibility with Water” value [1] was “Immiscible”.
With `CCCCn1cc[n+](C)c1.O=S(=O)([N-]S(=O)(=O)C(F)(F)F)C(F)(F)F` [BMIM-NTf2, 1-butyl-3-methylimidazolium bis[(trifluoromethylsulfonyl)imide], reference compound] the “Interaction parameter a (hydrogen bond basicity)” value ([2]; 40° C.) was 2.02, the “Interaction parameter b (hydrogen bond acidity)” value (“Interaction parameter b” for short) ([2]; 40° C.) was 0.36 and the Interaction parameter c ([2]; 40° C.) was −2.87. The “Interaction parameter l (dispersion forces)” value (“Interaction parameter l” below) ([2]; 40° C.) was 0.63, the “Interaction parameter r (interaction via nonbonding and π-electrons)” value (shortened to “Interaction parameter r”) ([2]; 40° C.) was 0 and the “Interaction parameter s (dipolarity/polarizability)” value ([2]; 40° C.) was 1.89. The “Interaction parameter a (hydrogen bond basicity)” value ([2]; 70° C.) was 1.75, the “Interaction parameter b” value ([2]; 70° C.) was 0.38 and the Interaction parameter c ([2]; 70° C.) was −3.03. The “Interaction parameter l” value ([2]; 70° C.) was 0.56, the “Interaction parameter r” value ([2]; 70° C.) was 0 and the “Interaction parameter s (dipolarity/polarizability)” value ([2]; 70° C.) was 1.67. For the same molecule, the “Interaction parameter a (hydrogen bond basicity)” value ([2]; 100° C.) was 1.55, the “Interaction parameter b” value ([2]; 100° C.) was 0.24 and the Interaction parameter c ([2]; 100° C.) was −3.13. The “Interaction parameter l” value ([2]; 100° C.) was 0.49, the “Interaction parameter r” value ([2]; 100° C.) was 0 and the “Interaction parameter s (dipolarity/polarizability)” value ([2]; 100° C.) was 1.60.
For `CCCC[N+]1(C)CCCC1.O=S(=O)([N-]S(=O)(=O)C(F)(F)F)C(F)(F)F` [BMPY-NTf2, 1-butyl-1-methylpyrrolidinium bis[(trifluoromethylsulfonyl)imide]], the “Interaction parameter a (hydrogen bond basicity)” value ([3]; 40° C.) is listed as 2.08, the “Interaction parameter b” value ([3]; 40° C.) is listed as 0.16 and the Interaction parameter c ([3]; 40° C.) is listed as −2.78. The “Interaction parameter l” value ([3]; 40° C.) was 0.68, the “Interaction parameter r” value ([3]; 40° C.) was 0 and the “Interaction parameter s (dipolarity/polarizability)” value ([3]; 40° C.) was 1.69. The “Interaction parameter a (hydrogen bond basicity)” value ([3]; 70° C.) was 1.78, the “Interaction parameter b” value ([3]; 70° C.) was 0 and the Interaction parameter c ([3]; 70° C.) was −2.80. The “Interaction parameter l” value ([3]; 70° C.) was 0.56, the “Interaction parameter r” value ([3]; 70° C.) was 0 and the “Interaction parameter s (dipolarity/polarizability)” value ([3]; 70° C.) was 1.53. For the same molecule, the “Interaction parameter a (hydrogen bond basicity)” value ([3]; 100° C.) was 1.55, the “Interaction parameter b” value ([3]; 100° C.) was 0 and the Interaction parameter c ([3]; 100° C.) was −2.92. For the same molecule, the “Interaction parameter l” value ([3]; 100° C.) was 0.48, the “Interaction parameter r” value ([3]; 100° C.) was 0 and the “Interaction parameter s (dipolarity/polarizability)” value ([3]; 100° C.) was 1.44.
In the case of `Cn1cc[n+](CCC[n+]2ccn(C)c2)c1.F[B-](F)(F)F.F[B-](F)(F)F` [C3(mim)2-BF4, 1,3-di(3-methylimidazolium)propane di-tetrafluoroborate], the “Miscibility with Heptane” value [1] was “Immiscible” and the “Miscibility with Water” value [1] was “Miscible”.
For `Cn1cc[n+](CCC[n+]2ccn(C)c2)c1.[Br-].[Br-]` [C3(mim)2-Br, 1,3-di(3-methylimidazolium)propane di-bromide], the “Miscibility with Heptane” value [1] was “Immiscible” and the “Miscibility with Water” value [1] was “Miscible”.
In the case of `Cn1cc[n+](CCC[n+]2ccn(C)c2)c1.F[P-](F)(F)(F)(F)F.F[P-](F)(F)(F)(F)F` [C3(mim)2-PF6, 1,3-di(3-methylimidazolium)propane di-hexafluorophosphate], the “Miscibility with Heptane” value [1] was “Immiscible” and the “Miscibility with Water” value [1] was “Immiscible”.
For `C[N+]1(CCC[N+]2(C)CCCC2)CCCC1.F[P-](F)(F)(F)(F)F.F[P-](F)(F)(F)(F)F` [C3(mpy)2-PF6, 1,3-di(methylpyrrolidinium)propane di-hexafluorophosphate], the “Miscibility with Heptane” value [1] was “Immiscible” and the “Miscibility with Water” value [1] was “Immiscible”.
In the case of `C[n+]1ccn(CCCCn2cc[n+](C)c2)c1.O=S(=O)([N-]S(=O)(=O)C(F)(F)F)C(F)(F)F.O=S(=O)([N-]S(=O)(=O)C(F)(F)F)C(F)(F)F` [C4(mim)2-NTf2], the “Interaction parameter a (hydrogen bond basicity)” value ([2]; 40° C.) was 2.11, the “Interaction parameter b” value ([2]; 40° C.) was 0.50 and the Interaction parameter c ([2]; 40° C.) was −2.94. The “Interaction parameter l” value ([2]; 40° C.) was 0.56, the “Interaction parameter r” value ([2]; 40° C.) was 0.25 and the “Interaction parameter s (dipolarity/polarizability)” value ([2]; 40° C.) was 2.01. For the same molecule, the “Interaction parameter a (hydrogen bond basicity)” value ([2]; 70° C.) was 1.77, the “Interaction parameter b” value ([2]; 70° C.) was 0.45 and the Interaction parameter c ([2]; 70° C.) was −2.91. For the same molecule, the “Interaction parameter l” value ([2]; 70° C.) was 0.44, the “Interaction parameter r” value ([2]; 70° C.) was 0.22 and the “Interaction parameter s (dipolarity/polarizability)” value ([2]; 70° C.) was 1.78. For the same molecule, the “Interaction parameter a (hydrogen bond basicity)” value ([2]; 100° C.) was 1.57, the “Interaction parameter b” value ([2]; 100° C.) was 0.33 and the Interaction parameter c ([2]; 100° C.) was −3.06. For the same molecule, the “Interaction parameter l” value ([2]; 100° C.) was 0.37, the “Interaction parameter r” value ([2]; 100° C.) was 0.20 and the “Interaction parameter s (dipolarity/polarizability)” value ([2]; 100° C.) was 1.69.
With `Cn1cc[n+](CCCCCCCCC[n+]2ccn(C)c2)c1.O=S(=O)([N-]S(=O)(=O)C(F)(F)F)C(F)(F)F.O=S(=O)([N-]S(=O)(=O)C(F)(F)F)C(F)(F)F` [C9(mim)2-NTf2, 1,9-di(3-methylimidazolium)nonane di-bis[(trifluoromethyl)sulfonyl]imidate] the “Interaction parameter a (hydrogen bond basicity)” value ([2]; 40° C.) was 1.83, the “Interaction parameter b” value ([2]; 40° C.) was 0.47 and the Interaction parameter c ([2]; 40° C.) was −2.86. The “Interaction parameter l” value ([2]; 40° C.) was 0.62, the “Interaction parameter r” value ([2]; 40° C.) was 0.16 and the “Interaction parameter s (dipolarity/polarizability)” value ([2]; 40° C.) was 1.81. The “Interaction parameter a (hydrogen bond basicity)” value ([2]; 70° C.) was 1.75, the “Interaction parameter b” value ([2]; 70° C.) was 0.20 and the Interaction parameter c ([2]; 70° C.) was −2.95. For the same molecule, the “Interaction parameter l” value ([2]; 70° C.) was 0.51, the “Interaction parameter r” value ([2]; 70° C.) was 0.11 and the “Interaction parameter s (dipolarity/polarizability)” value ([2]; 70° C.) was 1.76. For the same molecule, the “Interaction parameter a (hydrogen bond basicity)” value ([2]; 100° C.) was 1.50, the “Interaction parameter b” value ([2]; 100° C.) was 0.15 and the Interaction parameter c ([2]; 100° C.) was −3.06. The “Interaction parameter l” value ([2]; 100° C.) was 0.43, the “Interaction parameter r” value ([2]; 100° C.) was 0.11 and the “Interaction parameter s (dipolarity/polarizability)” value ([2]; 100° C.) was 1.64.
For `[Br-].[Br-].c1ccc(Cn2cc[n+](CCCCCCCCCCCC[n+]3ccn(Cc4ccccc4)c3)c2)cc1` [C12(benzim)2-Br, 1,12-di(3-benzylimidazolium)dodecane di-bromide], the “Miscibility with Water” value ([1]; listed as 28) was “insoluble in water”.
In the case of `O=S(=O)([N-]S(=O)(=O)C(F)(F)F)C(F)(F)F.O=S(=O)([N-]S(=O)(=O)C(F)(F)F)C(F)(F)F.c1ccc(Cn2cc[n+](CCCCCCCCCCCC[n+]3ccn(Cc4ccccc4)c3)c2)cc1` [C12(benzim)2-NTf2, 1,12-di(3-benzylimidazolium)dodecane di-bis[(trifluoromethyl)sulfonyl]imidate], the “Interaction parameter a (hydrogen bond basicity)” value ([2]; 40° C.) was 1.96, the “Interaction parameter b” value ([2]; 40° C.) was 0.84 and the Interaction parameter c ([2]; 40° C.) was −2.94. The “Interaction parameter l” value ([2]; 40° C.) was 0.66, the “Interaction parameter r” value ([2]; 40° C.) was 0.11 and the “Interaction parameter s (dipolarity/polarizability)” value ([2]; 40° C.) was 1.65. For the same molecule, the “Interaction parameter a (hydrogen bond basicity)” value ([2]; 70° C.) was 1.75, the “Interaction parameter b” value ([2]; 70° C.) was 0.57 and the Interaction parameter c ([2]; 70° C.) was −3.07. For the same molecule, the “Interaction parameter l” value ([2]; 70° C.) was 0.56, the “Interaction parameter r” value ([2]; 70° C.) was 0.07 and the “Interaction parameter s (dipolarity/polarizability)” value ([2]; 70° C.) was 1.62. The “Interaction parameter a (hydrogen bond basicity)” value ([2]; 100° C.) was 1.44, the “Interaction parameter b” value ([2]; 100° C.) was 0.52 and the Interaction parameter c ([2]; 100° C.) was −3.12. The “Interaction parameter l” value ([2]; 100° C.) was 0.46, the “Interaction parameter r” value ([2]; 100° C.) was 0 and the “Interaction parameter s (dipolarity/polarizability)” value ([2]; 100° C.) was 1.47.
In the case of `Cn1cc[n+](CCCCCCCCCCCC[n+]2ccn(C)c2)c1.[Br-].[Br-]` [C12(mim)2-Br, 1,12-di(3-methylimidazolium)dodecane di-bromide], the “Surface Tension” value [4] was 57.9 dynes/cm, the Density [5] was 1.27 g/mL and the “Miscibility with Water” value [1] was “Miscible”.
In the case of `CNC[C@H](O)[C@@H](O)[C@H](O)[C@H](O)CO` [N-methyl-D-glucamine], the “solubility in acetone, dimethyl formamide, tetrahydrofuran, ethyl acetate, acetonitrile and dichloromethane” value [6] was “insoluble” and the “solubility in water, dimethylsulfoxide (DMSO)” value [6] was “only soluble”.
